Results as given in patent US20250262201A1, “COMPOUNDS AND METHODS USEFUL FOR STABILIZING PHENYLALANINE HYDROXYLASE MUTATIONS” (Agios Pharmaceuticals, Inc., priority 2022, published 2025).

target: T1, human PAH with the R408W mutation (Homo sapiens, UniProt P00439, R408W); test: Cell Based Phenylalanine Flux Assay; details: A375 cells expressing human R408W PAH; 24 hrs compound incubation; 13C-Tyrosine by LC-MS; average where tested multiple times; read-out: AC50
T1 construct: expressed in transfected cells
T1 sequence (P00439 1-452 R408W): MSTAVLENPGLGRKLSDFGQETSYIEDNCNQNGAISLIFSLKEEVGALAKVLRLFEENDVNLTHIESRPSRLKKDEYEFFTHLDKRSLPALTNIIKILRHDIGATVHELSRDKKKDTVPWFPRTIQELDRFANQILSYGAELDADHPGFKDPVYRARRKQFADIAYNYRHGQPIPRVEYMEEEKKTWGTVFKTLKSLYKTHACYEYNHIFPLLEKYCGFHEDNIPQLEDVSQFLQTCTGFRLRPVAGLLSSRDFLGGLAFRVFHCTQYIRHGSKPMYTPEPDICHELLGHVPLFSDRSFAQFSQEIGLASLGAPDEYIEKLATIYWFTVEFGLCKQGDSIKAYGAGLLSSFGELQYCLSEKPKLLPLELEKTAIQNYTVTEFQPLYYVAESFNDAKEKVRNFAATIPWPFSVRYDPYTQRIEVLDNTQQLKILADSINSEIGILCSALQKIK

Compound	AC50 [nM]
O=C(c1ocnc1C(F)(F)F)N1CCc2[nH]cnc2C1c1ccc2ccccc2n1 (stereo in doubt) [Example 37, (R)-(4-(quinolin-2-yl)-6,7-dihydro-1H-imidazo[4,5-c]pyridin-5(4H)-yl)(4-(trifluoromethyl)oxazol-5-yl)methanone]	< 500
O=C(c1ocnc1C(F)(F)F)N1CCc2[nH]cnc2C1c1ccc2ccccc2n1 (stereo in doubt) [Example 38, (S)-(4-(quinolin-2-yl)-6,7-dihydro-1H-imidazo[4,5-c]pyridin-5(4H)-yl)(4-(trifluoromethyl)oxazol-5-yl)methanone]	1000 to 5000
CC(F)(F)c1ncc(C(=O)N2CCc3[nH]cnc3C2c2ccc3ccccc3n2)s1 (stereo in doubt) [Example 39, (R)-(2-(1,1-difluoroethyl)thiazol-5-yl)(4-(quinolin-2-yl)-6,7-dihydro-1H-imidazo[4,5-c]pyridin-5(4H)-yl)methanone]	500 to 1000
CC(F)(F)c1ncc(C(=O)N2CCc3[nH]cnc3C2c2ccc3ccccc3n2)s1 (stereo in doubt) [Example 40, (S)-(2-(1,1-difluoroethyl)thiazol-5-yl)(4-(quinolin-2-yl)-6,7-dihydro-1H-imidazo[4,5-c]pyridin-5(4H)-yl)methanone]	1000 to 5000
O=C(CC1CC1)N1CCc2[nH]cnc2C1c1ccc2ccccc2n1 (stereo in doubt) [Example 41, (R)-2-cyclopropyl-1-(4-(quinolin-2-yl)-6,7-dihydro-1H-imidazo[4,5-c]pyridin-5(4H)-yl)ethanone]	< 500
O=C(CC1CC1)N1CCc2[nH]cnc2C1c1ccc2ccccc2n1 (stereo in doubt) [Example 42, (S)-2-cyclopropyl-1-(4-(quinolin-2-yl)-6,7-dihydro-1H-imidazo[4,5-c]pyridin-5(4H)-yl)ethanone]	1000 to 5000
O=C(c1oc(-c2ccccn2)nc1C1CC1)N1CCc2[nH]cnc2C1c1ccc2ccccc2n1 (stereo in doubt) [Example 43, (R)-(4-cyclopropyl-2-(pyridin-2-yl)oxazol-5-yl)(4-(quinolin-2-yl)-6,7-dihydro-1H-imidazo[4,5-c]pyridin-5(4H)-yl)methanone]	< 500
O=C(c1oc(-c2ccccn2)nc1C1CC1)N1CCc2[nH]cnc2C1c1ccc2ccccc2n1 (stereo in doubt) [Example 44, (S)-(4-cyclopropyl-2-(pyridin-2-yl)oxazol-5-yl)(4-(quinolin-2-yl)-6,7-dihydro-1H-imidazo[4,5-c]pyridin-5(4H)-yl)methanone]	1000 to 5000
O=C(c1nnc(-c2ccccn2)o1)N1CCc2[nH]cnc2C1c1ccc2ccccc2n1 (stereo in doubt) [Example 45, (R)-(5-(pyridin-2-yl)-1,3,4-oxadiazol-2-yl)(4-(quinolin-2-yl)-6,7-dihydro-1H-imidazo[4,5-c]pyridin-5(4H)-yl)methanone]	< 500
O=C(c1nnc(-c2ccccn2)o1)N1CCc2[nH]cnc2C1c1ccc2ccccc2n1 (stereo in doubt) [Example 46, (S)-(5-(pyridin-2-yl)-1,3,4-oxadiazol-2-yl)(4-(quinolin-2-yl)-6,7-dihydro-1H-imidazo[4,5-c]pyridin-5(4H)-yl)methanone]	> 5000
Cn1cc(-c2nnc(C(=O)N3CCc4[nH]cnc4C3c3ccc4ccccc4n3)o2)cn1 (stereo in doubt) [Example 47, (R)-(5-(1-methyl-1H-pyrazol-4-yl)-1,3,4-oxadiazol-2-yl)(4-(quinolin-2-yl)-6,7-dihydro-1H-imidazo[4,5-c]pyridin-5(4H)-yl)methanone]	500 to 1000
Cn1cc(-c2nnc(C(=O)N3CCc4[nH]cnc4C3c3ccc4ccccc4n3)o2)cn1 (stereo in doubt) [Example 48, (S)-(5-(1-methyl-1H-pyrazol-4-yl)-1,3,4-oxadiazol-2-yl)(4-(quinolin-2-yl)-6,7-dihydro-1H-imidazo[4,5-c]pyridin-5(4H)-yl)methanone]	> 5000
O=C([C@H]1CC1(F)F)N1CCc2[nH]cnc2[C@@H]1c1ccc2ccccc2n1 (stereo in doubt) [Example 49, ((R)-2,2-difluorocyclopropyl)((R)-4-(quinolin-2-yl)-6,7-dihydro-1H-imidazo[4,5-c]pyridin-5(4H)-yl)methanone]	< 500
O=C([C@@H]1CC1(F)F)N1CCc2[nH]cnc2C1c1ccc2ccccc2n1 (stereo in doubt) [Example 50, ((S)-2,2-difluorocyclopropyl)((S)-4-(quinolin-2-yl)-6,7-dihydro-1H-imidazo[4,5-c]pyridin-5(4H)-yl)methanone]	> 5000
O=C(c1ocnc1C(F)F)N1CCc2nc[nH]c2C1c1ccc2ccccc2n1 (stereo in doubt) [Example 51, (R)-(4-(difluoromethyl)oxazol-5-yl)(4-(quinolin-2-yl)-6,7-dihydro-3H-imidazo[4,5-c]pyridin-5(4H)-yl)methanone]	< 500
O=C(c1ocnc1C(F)F)N1CCc2nc[nH]c2C1c1ccc2ccccc2n1 (stereo in doubt) [Example 52, (S)-(4-(difluoromethyl)oxazol-5-yl)(4-(quinolin-2-yl)-6,7-dihydro-3H-imidazo[4,5-c]pyridin-5(4H)-yl)methanone]	1000 to 5000
O=C(CC1CC(F)C1)N1CCc2[nH]cnc2C1c1ccc2ccccc2n1 (stereo in doubt) [Example 53, (R)-2-(3-fluorocyclobutyl)-1-(4-(quinolin-2-yl)-6,7-dihydro-1H-imidazo[4,5-c]pyridin-5(4H)-yl)ethanone]	< 500
O=C(CC1CC(F)C1)N1CCc2[nH]cnc2C1c1ccc2ccccc2n1 (stereo in doubt) [Example 54, (S)-2-(3-fluorocyclobutyl)-1-(4-(quinolin-2-yl)-6,7-dihydro-1H-imidazo[4,5-c]pyridin-5(4H)-yl)ethanone]	1000 to 5000
O=C(N1CCc2[nH]cnc2C1c1ccc2ccccc2n1)C(F)(F)C1(O)CCC1 (stereo in doubt) [Example 55, (R)-2,2-difluoro-2-(1-hydroxycyclobutyl)-1-(4-(quinolin-2-yl)-6,7-dihydro-1H-imidazo[4,5-c]pyridin-5(4H)-yl)ethanone]	500 to 1000
O=C(N1CCc2[nH]cnc2C1c1ccc2ccccc2n1)C(F)(F)C1(O)CCC1 (stereo in doubt) [Example 56, (S)-2,2-difluoro-2-(1-hydroxycyclobutyl)-1-(4-(quinolin-2-yl)-6,7-dihydro-1H-imidazo[4,5-c]pyridin-5(4H)-yl)ethanone]	1000 to 5000
N#Cc1ncoc1C(=O)N1CCc2[nH]cnc2C1c1ccc2ccccc2n1 (stereo in doubt) [Example 57, (R)-5-(4-(quinolin-2-yl)-4,5,6,7-tetrahydro-1H-imidazo[4,5-c]pyridine-5-carbonyl)oxazole-4-carbonitrile]	< 500
N#Cc1ncoc1C(=O)N1CCc2[nH]cnc2C1c1ccc2ccccc2n1 (stereo in doubt) [Example 58, (S)-5-(4-(quinolin-2-yl)-4,5,6,7-tetrahydro-1H-imidazo[4,5-c]pyridine-5-carbonyl)oxazole-4-carbonitrile]	1000 to 5000
O=C(CC1(O)CCC1)N1CCc2[nH]cnc2C1c1ccc2ccccc2n1 (stereo in doubt) [Example 59, (R)-2-(1-hydroxycyclobutyl)-1-(4-(quinolin-2-yl)-6,7-dihydro-1H-imidazo[4,5-c]pyridin-5(4H)-yl)ethanone]	< 500
O=C(CC1(O)CCC1)N1CCc2[nH]cnc2C1c1ccc2ccccc2n1 (stereo in doubt) [Example 60, (S)-2-(1-hydroxycyclobutyl)-1-(4-(quinolin-2-yl)-6,7-dihydro-1H-imidazo[4,5-c]pyridin-5(4H)-yl)ethanone]	1000 to 5000
O=C(c1cnc(-c2ccccn2)o1)N1CCc2[nH]cnc2C1c1ccc2ccccc2n1 (stereo in doubt) [Example 61, (R)-(2-(pyridin-2-yl)oxazol-5-yl)(4-(quinolin-2-yl)-6,7-dihydro-1H-imidazo[4,5-c]pyridin-5(4H)-yl)methanone]	500 to 1000
O=C(c1cnc(-c2ccccn2)o1)N1CCc2[nH]cnc2C1c1ccc2ccccc2n1 (stereo in doubt) [Example 62, (S)-(2-(pyridin-2-yl)oxazol-5-yl)(4-(quinolin-2-yl)-6,7-dihydro-1H-imidazo[4,5-c]pyridin-5(4H)-yl)methanone]	> 5000
O=C(c1nnc(-c2cnn(C(F)F)c2)o1)N1CCc2[nH]cnc2C1c1ccc2ccccc2n1 (stereo in doubt) [Example 63, (R)-(5-(1-(difluoromethyl)-1H-pyrazol-4-yl)-1,3,4-oxadiazol-2-yl)(4-(quinolin-2-yl)-6,7-dihydro-1H-imidazo[4,5-c]pyridin-5(4H)-yl)methanone]	< 500
O=C(c1nnc(-c2cnn(C(F)F)c2)o1)N1CCc2[nH]cnc2C1c1ccc2ccccc2n1 (stereo in doubt) [Example 64, (S)-(5-(1-(difluoromethyl)-1H-pyrazol-4-yl)-1,3,4-oxadiazol-2-yl)(4-(quinolin-2-yl)-6,7-dihydro-1H-imidazo[4,5-c]pyridin-5(4H)-yl)methanone]	> 5000
O=C(c1oc(-c2ccccn2)nc1C(F)F)N1CCc2[nH]cnc2C1c1ccc2ccccc2n1 (stereo in doubt) [Example 65, (R)-(4-(difluoromethyl)-2-(pyridin-2-yl)oxazol-5-yl)(4-(quinolin-2-yl)-6,7-dihydro-1H-imidazo[4,5-c]pyridin-5(4H)-yl)methanone]	< 500
